Laboratory results taken from ChEMBL document CHEMBL1201862, “PubChem BioAssay data set” (2004).
Where “and” joins values, the source holds several entries; their conditions need not be identical. Equal values may be shown once.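 All cell lines were grown in 96-well plates and treated with compound for 48 hours. At the GI50, growth is halved.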 Calls of active or inactive are those of the source. Cut-off read from the data, not from the text of the source: active = GI50 up to about 1.1 µM and inactive = higher.

Assays:
Test in all cases: NCI-60 cell line screen, 48 h
OVCAR-5 = tested on: OVCAR-5
IGROV-1 = tested on: IGROV-1
UO-31 = tested on: UO-31
HT-29 = tested on: HT-29
PC-3 = tested on: PC-3
HCC 2998 = tested on: HCC 2998
KM12 = tested on: KM12
DU-145 = tested on: DU-145
SW-620 = tested on: SW-620
SK-MEL-2 = tested on: SK-MEL-2
EKVX = tested on: EKVX
HCT-116 = tested on: HCT-116
MDA-N = tested on: MDA-N
SF-539 = tested on: SF-539
786-0 = tested on: 786-0
MCF7 = tested on: MCF7
SF-268 = tested on: SF-268
U-251 = tested on: U-251
TK-10 = tested on: TK-10
RPMI-8226 = tested on: RPMI-8226

Measured: GI50

Cc1nc2c(Br)cc(Br)cc2c(=O)n1-c1ccccc1N
inactive: OVCAR-5 28.8 µM | IGROV-1 38.3 µM | UO-31 20.5 µM | HT-29 23.9 µM | PC-3 26.8 µM | HCC 2998 35.6 µM | KM12 51.5 µM | DU-145 56.6 µM | SW-620 44.6 µM | SK-MEL-2 19.2 µM | EKVX 41 µM | HCT-116 23.4 µM | MDA-N 50.9 µM | SF-539 35.2 µM | 786-0 43.8 µM | MCF7 38.9 µM | SF-268 50.1 µM

CC1(C)CC(=O)C(=CNc2nc(-c3ccc(Br)cc3)cs2)C(=O)C1
inactive: OVCAR-5 42.5 µM | IGROV-1 29.6 µM | U-251 30.6 µM | UO-31 21.9 µM | HT-29 29.9 µM | PC-3 26.8 µM | HCC 2998 28.9 µM | KM12 34 µM | DU-145 43.9 µM | SW-620 42.9 µM | TK-10 11.5 µM | SK-MEL-2 19.4 µM | EKVX 38.7 µM | HCT-116 26.5 µM | MDA-N 37.8 µM | SF-539 24.8 µM | 786-0 25.5 µM | MCF7 32.6 µM

COC(=O)/C=C\C(C#N)(C#N)/N=C/c1sccc1C
inactive: OVCAR-5 5.26 µM | IGROV-1 15 µM | U-251 10 µM | UO-31 1.77 µM | HT-29 1.73 µM | PC-3 7.6 µM | HCC 2998 15.2 µM | RPMI-8226 5.04 µM | KM12 16.2 µM | DU-145 7.53 µM | SW-620 1.58 µM | TK-10 1.86 µM | SK-MEL-2 15.8 µM | EKVX 3.59 µM | HCT-116 2.43 µM | MDA-N 3.59 µM | 786-0 1.94 µM | MCF7 1.56 µM | SF-268 12.3 µM

N#C/C(C(=S)Nc1ccccc1)=C(/N)N1CCCC1
inactive: OVCAR-5 > 100 µM | IGROV-1 > 100 µM | U-251 > 100 µM | UO-31 46.7 µM | HT-29 > 100 µM | PC-3 > 100 µM | HCC 2998 > 100 µM | RPMI-8226 > 100 µM | KM12 > 100 µM | DU-145 > 100 µM | SW-620 > 100 µM | TK-10 > 100 µM | SK-MEL-2 > 100 µM | EKVX > 100 µM | HCT-116 > 100 µM | MDA-N > 100 µM | SF-539 > 100 µM | 786-0 > 100 µM | MCF7 > 100 µM | SF-268 > 100 µM

O=c1[nH]c2[nH]c(-c3ccc(Br)cc3)cc2c2ccccc12
inactive: OVCAR-5 > 100 µM | IGROV-1 > 100 µM | U-251 28.8 µM | UO-31 > 100 µM | HT-29 35.6 µM | PC-3 > 100 µM | HCC 2998 > 100 µM | RPMI-8226 70.5 µM | KM12 > 100 µM | DU-145 > 100 µM | SW-620 > 100 µM | TK-10 52 µM | SK-MEL-2 > 100 µM | EKVX 5.58 µM | HCT-116 43.2 µM | MDA-N > 100 µM | SF-539 > 100 µM | 786-0 35.6 µM | MCF7 > 100 µM | SF-268 86.9 µM

COC(=O)/C(=N/NC(N)=O)C(C(=O)C(=O)Nc1ccc(C)cc1)c1nc2ccc(C(=O)c3ccccc3)cc2nc1O (stereo unspecified)
inactive: OVCAR-5 > 100 µM | IGROV-1 23.7 µM | U-251 > 100 µM | UO-31 30.5 µM | HT-29 80.9 µM | PC-3 > 100 µM | HCC 2998 34.2 µM | KM12 66.7 µM | DU-145 > 100 µM | SW-620 > 100 µM | TK-10 > 100 µM | SK-MEL-2 > 100 µM | EKVX 33.4 µM | HCT-116 > 100 µM | MDA-N 64.1 µM | SF-539 85.1 µM | 786-0 > 100 µM | MCF7 91.4 µM | SF-268 > 100 µM

CCOC(=O)C(C(=O)OCC)=C1SC(=N\c2ccccc2)/C(=N/c2ccccc2)N1c1ccccc1
inactive: OVCAR-5 > 100 µM | IGROV-1 > 100 µM | U-251 > 100 µM | UO-31 > 100 µM | HT-29 82.2 µM | PC-3 58.7 µM | HCC 2998 45.8 µM | RPMI-8226 > 100 µM | KM12 > 100 µM | DU-145 > 100 µM | SK-MEL-2 > 100 µM | EKVX > 100 µM | HCT-116 > 100 µM | MDA-N > 100 µM | SF-539 > 100 µM | 786-0 > 100 µM | MCF7 75.3 µM | SF-268 48.3 µM

CC(=O)N1N(c2ccc([N+](=O)[O-])cc2)C(=O)C1(C)C
inactive: OVCAR-5 23.3 µM | IGROV-1 20.6 µM | U-251 21.7 µM | UO-31 17.1 µM | HT-29 16.6 µM | PC-3 15.7 µM | HCC 2998 15.8 µM | KM12 16.7 µM | DU-145 35.6 µM | SW-620 13.4 µM | TK-10 17.1 µM | SK-MEL-2 19.1 µM | EKVX 17.3 µM | MDA-N 30.5 µM | SF-539 20.9 µM | 786-0 18.1 µM | MCF7 23.6 µM | SF-268 29.4 µM

CCOP(=O)(OCC)/C(=C/NC(=S)c1ccncc1)C(=O)OC
inactive: OVCAR-5 > 100 µM | IGROV-1 > 100 µM | U-251 > 100 µM | UO-31 > 100 µM | HT-29 > 100 µM | PC-3 > 100 µM | HCC 2998 > 100 µM | RPMI-8226 > 100 µM | KM12 > 100 µM | DU-145 > 100 µM | SW-620 > 100 µM | TK-10 > 100 µM | SK-MEL-2 > 100 µM | EKVX > 100 µM | HCT-116 > 100 µM | MDA-N > 100 µM | SF-539 > 100 µM | 786-0 > 100 µM | MCF7 > 100 µM | SF-268 > 100 µM

CCOC(=O)/C=C/CC(C)(C)CCOC(C)=O
inactive: OVCAR-5 > 10 µM | IGROV-1 > 10 µM | U-251 > 10 µM | UO-31 > 10 µM | HT-29 > 10 µM | PC-3 > 10 µM | HCC 2998 > 10 µM | RPMI-8226 > 10 µM | KM12 > 10 µM | DU-145 > 10 µM | SW-620 > 10 µM | TK-10 > 10 µM | SK-MEL-2 > 10 µM | HCT-116 > 10 µM | MDA-N > 10 µM | SF-539 > 10 µM | 786-0 > 10 µM | MCF7 > 10 µM | SF-268 > 10 µM

O=C1N/C(=N/N=C\C(O)C(O)C(O)CO)N/C1=C/c1ccc(Cl)cc1 (stereo unspecified)
inactive: OVCAR-5 81.1 µM | IGROV-1 30.6 µM and 32.9 µM | U-251 33 µM and 34.1 µM | UO-31 28.8 µM and 31.7 µM | HT-29 44.5 µM and 31.8 µM | PC-3 42.8 µM and 37.5 µM | HCC 2998 > 10 µM | RPMI-8226 33.2 µM and 34.4 µM | KM12 29.9 µM and 37.2 µM | DU-145 44.8 µM and 70.5 µM | SW-620 60.5 µM and 52.1 µM | TK-10 > 100 µM and 89.7 µM | SK-MEL-2 30.5 µM and 40.1 µM | EKVX 34.8 µM and 26.7 µM | HCT-116 43.9 µM and 46.2 µM | MDA-N 46.2 µM and 38.5 µM | SF-539 41.5 µM | 786-0 53.1 µM | MCF7 29.2 µM | SF-268 27 µM and 30.3 µM

O=C(Nc1ccc(Cl)cc1)c1cc2c(cc1Cl)Sc1nccn1S2(=O)=O
inactive: OVCAR-5 > 100 µM | IGROV-1 60.1 µM | U-251 10.7 µM | HT-29 > 100 µM | PC-3 85.3 µM | HCC 2998 76.7 µM | KM12 > 100 µM | DU-145 > 100 µM | SW-620 27.5 µM | SK-MEL-2 > 100 µM | EKVX 69 µM | HCT-116 34.6 µM | MDA-N 28.8 µM | SF-539 50.2 µM | 786-0 29.6 µM | MCF7 69.3 µM | SF-268 27.5 µM

CCOC(=O)C(=CN1CCNC1=S)C(=O)OCC
inactive: OVCAR-5 > 100 µM | IGROV-1 > 100 µM | U-251 > 100 µM | HT-29 > 100 µM | PC-3 > 100 µM | HCC 2998 > 100 µM | RPMI-8226 > 100 µM | DU-145 > 100 µM | SW-620 > 100 µM | SK-MEL-2 > 100 µM | EKVX > 100 µM | HCT-116 > 100 µM | MDA-N > 100 µM | SF-539 > 100 µM | 786-0 > 100 µM | MCF7 > 100 µM

CC(=O)Oc1ccc(/C=C/C(=O)O[C@H]2CCCC[C@@H]2OC(=O)/C=C/c2ccc(OC(C)=O)c(OC(C)=O)c2)cc1OC(C)=O
inactive: OVCAR-5 12.3 µM | IGROV-1 4.09 µM | U-251 9.25 µM | UO-31 3.54 µM | HT-29 5.47 µM | PC-3 8.28 µM | HCC 2998 13.8 µM | RPMI-8226 4.07 µM | KM12 8.75 µM | DU-145 13.3 µM | SW-620 2.24 µM | TK-10 6.93 µM | SK-MEL-2 15.3 µM | EKVX 17.1 µM | HCT-116 4.58 µM | MDA-N 8.97 µM | SF-539 6.38 µM | 786-0 4.57 µM | MCF7 13.8 µM | SF-268 8.17 µM
